Data on 9 compounds can be found in patent publication US8008487B2, “Substituted thieno[2,3-D]pyrimidines as fungicides” (priority 2004, dated 2011).

Common to all, as to format: in vivo
Assay [1] concerns Colletotricum lagenarium. Nature of the assay: Cucumber Anthracnose (COLLLA), whole-plant fungicide test. Particulars: Cucumis sativus, foliar, 24 h, 200 ppm on foliage, one-day protectant test, read-out: COLLLA percent control of disease.
Assay [2] deals with Erysiphe cichoracaerum. Nature of the assay: Cucumber Powdery Mildew (ERYSCI), whole-plant fungicide test. Particulars: Erysiphe, foliar, 24 h, 200 ppm on foliage, one-day protectant test, read-out: ERYSCI percent control of disease.
Assay [3] has as its system Leptosphaeria nodorum. Nature of the assay: Glume Blotch of Wheat (LEPTNO), whole-plant fungicide test. As to conditions: Parastagonospora nodorum, foliar, 24 h, 200 ppm on foliage, one-day protectant test, read-out: LEPTNO percent control of disease.
The subject of assay [4] is Phytophthora infestans. Put plainly: whole plant or invertebrate. As to conditions: Phytophthora infestans, in Solanum lycopersicum, foliar, 24 h, read-out: PHYTIN percent control of disease, 200 ppm on foliage, tomato, one-day protectant test.
For assay [5], the system named is Puccinia recondita tritici. Nature of the assay: Leaf Rust of Wheat (PUCCRT), whole-plant fungicide test. Particulars: Puccinia recondita, foliar, 24 h, 200 ppm on foliage, one-day protectant test, read-out: PUCCRT percent control of disease.
In assay [6] the test system is Magnaporthe grisea. Nature of the assay: whole plant or invertebrate. Particulars: Pyricularia oryzae, in Oryza sativa, foliar, 24 h, read-out: PYRIOR percent control of disease, 200 ppm on foliage, rice, one-day protectant test.

Turning to `CC(Nc1ncnc2scc(Cl)c12)c1ccc(OCC(F)F)nc1` (stereo not drawn) [Compound 74], the pest or weed control at 200 ppm in assay [1] lay within 80 to 100%; in assay [2] it was 80 to 100%; in assay [3], 80 to 100%; in assay [4], 0 to 49%; in assay [5], 80 to 100%; in assay [6], 80 to 100%.

For `CC(Nc1ncnc2scc(Cl)c12)c1ccc(OCCF)nc1` (stereo not drawn) [Compound 75], the pest or weed control at 200 ppm in assay [1] lay in the range of 50 to 79%; in assay [2] it was 80 to 100%; in assay [3] it was 0 to 49%; in assay [4], 0 to 49%; in assay [5], 80 to 100%; in assay [6], 80 to 100%.

For `CCC(Nc1ncnc2scc(Cl)c12)c1ccc(OC)nc1` (stereo not drawn) [Compound 79], the pest or weed control at 200 ppm in assay [1] is 0 to 49%; in assay [2], 0 to 49%; in assay [3], 0 to 49%; in assay [4], 0 to 49%; in assay [5] it was 80 to 100%; in assay [6], 80 to 100%.

Consider `CC(Nc1ncnc2scc(Cl)c12)c1cccnc1Cl` (stereo not drawn) [Compound 80], for which the pest or weed control at 200 ppm in assay [1] was in the range of 50 to 79%; in assay [2] it was 80 to 100%; in assay [3], 0 to 49%; in assay [4], 0 to 49%; in assay [5], 80 to 100%; in assay [6] it was 80 to 100%.

For the compound `COc1ccc(OCC2CC2C(C)Nc2ncnc3scc(Cl)c23)cc1` (stereo not drawn) [Compound 86], the pest or weed control at 200 ppm fell in the range of 80 to 100% in assay [1]; 80 to 100% in assay [2]; 50 to 79% in assay [3]; 0 to 49% in assay [4]; 80 to 100% in assay [5]; 80 to 100% in assay [6].

For `CC(Nc1ncnc2scc(Cl)c12)C1CC1COCC(F)(F)F` (stereo not drawn) [Compound 87], the pest or weed control at 200 ppm was in the range of 0 to 49% in assay [1]; 80 to 100% in assay [2]; 0 to 49% in assay [3]; 0 to 49% in assay [4]; 80 to 100% in assay [5]; 80 to 100% in assay [6].

For `COc1ccc(C(C)Nc2ncnc3scc(SC)c23)cc1` (stereo not drawn) [Compound 88, 5-Methylthio-N-[1-(4-methoxyphenyl)ethyl]thieno[2,3-d]pyrimidin-4-amine], the pest or weed control at 200 ppm in assay [1] fell in the range of 0 to 49%; in assay [2], 0 to 49%; in assay [3], 0 to 49%; in assay [4], 0 to 49%; in assay [5] it was 80 to 100%; in assay [6], 80 to 100%.

On to `COc1ccc(C(C)Nc2ncnc3scc(S(C)(=O)=O)c23)cc1` (stereo not drawn) [Compound 89, 5-Methanesulfonyl-N-[1-(4-methoxyphenyl)ethyl]thieno[2,3-d]pyrimidin-4-amine], for which the pest or weed control at 200 ppm in assay [1] fell in the range of 0 to 49%; in assay [2], 0 to 49%; in assay [3] it was 0 to 49%; in assay [4], 0 to 49%; in assay [5], 0 to 49%; in assay [6], 50 to 79%.

On to `CC(Nc1ncnc2scc(Cl)c12)c1cnc(OCC(F)(F)F)s1` (stereo not drawn) [Compound 90], for which the pest or weed control at 200 ppm fell in the range of 0 to 49% in assay [1]; 80 to 100% in assay [2]; 50 to 79% in assay [3]; 0 to 49% in assay [4]; 80 to 100% in assay [5]; 80 to 100% in assay [6].
